The NIST ThermoML archive (doi:10.1021/je049672l)

Settings: for mass density: Vibrating tube method; for vapor or sublimation pressure: Closed cell (Static) method

CCC [propane]
Fluid (supercritical or subcritical phases)
Settings | mass density [kg/m3]
300 K, 6496.7 kPa | 505.29
300 K, 7004.4 kPa | 506.54
310 K, 1514.4 kPa | 473.96
310 K, 2018.8 kPa | 475.98
310 K, 2491.2 kPa | 477.78
310 K, 3012.9 kPa | 479.7
310 K, 3515 kPa | 481.48
310 K, 4040.6 kPa | 483.29
310 K, 4528.9 kPa | 484.91
310 K, 5029.4 kPa | 486.52
310 K, 5529.3 kPa | 488.08
310 K, 6046.3 kPa | 489.64
310 K, 6510.1 kPa | 491.02
310 K, 6991.8 kPa | 492.41
320 K, 2011.4 kPa | 457.17
320 K, 2513.8 kPa | 459.66
320 K, 3002.1 kPa | 461.96
320 K, 3495.1 kPa | 464.17
320 K, 4025.8 kPa | 466.44
320 K, 4519.6 kPa | 468.46
320 K, 5017.9 kPa | 470.44
320 K, 5536.8 kPa | 472.4
320 K, 6024.8 kPa | 474.19
320 K, 6523.4 kPa | 475.95
320 K, 7008.9 kPa | 477.63
330 K, 2033.9 kPa | 435.23
330 K, 2537.4 kPa | 438.74
330 K, 3032 kPa | 441.91
330 K, 3546.3 kPa | 445
330 K, 3909.1 kPa | 447.05
330 K, 3995.4 kPa | 447.53
330 K, 4495.8 kPa | 450.17
330 K, 4996.1 kPa | 452.66
330 K, 5488.6 kPa | 455.01
330 K, 6010.6 kPa | 457.38
330 K, 6499.8 kPa | 459.5
330 K, 6985.1 kPa | 461.52
340 K, 3024.2 kPa | 417.87
340 K, 3507.8 kPa | 422.07
340 K, 4014 kPa | 426.05
340 K, 4501.8 kPa | 429.56
340 K, 5027.1 kPa | 433.06
340 K, 5516.7 kPa | 436.1
340 K, 5985 kPa | 438.83
340 K, 6494.7 kPa | 441.64
340 K, 6964.1 kPa | 444.1
350 K, 3541.2 kPa | 393.49
350 K, 4011.9 kPa | 399.51
350 K, 4505.9 kPa | 404.94
350 K, 5024.8 kPa | 409.94
350 K, 5521.6 kPa | 414.24
350 K, 6027.1 kPa | 418.22
350 K, 6491.4 kPa | 421.59
350 K, 6978.1 kPa | 424.88
360 K, 4043.5 kPa | 362.08
360 K, 4527.8 kPa | 372.52
360 K, 5043 kPa | 380.99
360 K, 5524.7 kPa | 387.51
360 K, 6048.5 kPa | 393.63
360 K, 6529.9 kPa | 398.56
360 K, 6953.8 kPa | 402.5
370 K, 779.8 kPa | 11.91
370 K, 1089.1 kPa | 17.21
370 K, 1515.9 kPa | 25.15
370 K, 2081.6 kPa | 37.08
370 K, 2783.7 kPa | 55.36
370 K, 4325.4 kPa | 287.46
370 K, 4521.7 kPa | 312.65
370 K, 4996.9 kPa | 336.94
370 K, 5527.4 kPa | 352.01
370 K, 5998 kPa | 361.65
370 K, 6504.8 kPa | 369.98
370 K, 7066.4 kPa | 377.66
380 K, 813.8 kPa | 12.27
380 K, 1223.8 kPa | 19.12
380 K, 1564.3 kPa | 25.22
380 K, 2032 kPa | 34.39
380 K, 2630.4 kPa | 47.9
380 K, 3340.1 kPa | 67.96
380 K, 4059 kPa | 97.16
380 K, 4059.9 kPa | 97.18
380 K, 4060.6 kPa | 97.22
380 K, 4556.5 kPa | 131.82
380 K, 5335.4 kPa | 273.87
380 K, 5530.3 kPa | 291.64
380 K, 6044.5 kPa | 318.37
380 K, 6541.5 kPa | 333.99
380 K, 7012.1 kPa | 344.89

Liquid
Settings | mass density [kg/m3] | vapor or sublimation pressure [kPa]
300 K | 489.48 | 997.6
310 K | 472.96 | 1272.1
320 K | 455 | 1600.7
330 K | 434.9 | 1988.8
340 K | 411.92 | 2429.7
350 K | 384.39 | 2948
360 K | 347.97 | 3552.2
